This is an account of results in paper PMC12518634, “The noncanonical function of liver-type phosphofructokinase potentiates the efficacy of HDAC inhibitors in cancer” (Signal Transduction and Targeted Therapy, 2025).

Counter-ions that a name gives are not always drawn. Like-named read-outs stand apart in the source and are kept apart here. Where no end group is shown, it is not given here.

Data set [1] has as its system TFK1 cells. The data set is described as follows: Cell viability assay (CellTiter-Glo, 72 h), GI50. The settings on record: TFK1 sgPFKL-1 and sgPFKL-2 versus sgNC, Supplementary Fig. 2d. In kind it is cell-based, human. The protocol: Cell viability was assessed using the CellTiter-Glo luminescent cell viability assay (Vazyme, DD1101) following the manufacturer’s instructions. Briefly, 5000 cells per well were seeded into a 96-well white bottom permeable plate. Different concentrations of drugs were added to each well. After 72 h of treatment, a mixture of CellTier reagent and serum-free culture medium was prepared at a 1:1 ratio, and 100 μL of the mixture was added to each well. After incubation at 37 °C for 15 min, the luminescence was measured using a microplate reader (Synergy H1, Biotek). All the experiments were conducted in triplicate. Cell viability (relative luminescence) was defined as the luminescence of the drug treatment relative to that of the vehicle control.
(In general: In ATP-based viability assays light output follows the ATP content of the culture.)

For data set [2], the system named is 783C-6. Briefly: High-throughput drug screen, CellTiter-Glo viability, 72 h. Also noted: AUC: scale not given here. The settings on record: for AUC: area under the dose-response curve; for EC50: 72 h, read-out: EC50. In kind it is cell-based, human. The method in brief: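 Cholangiocarcinoma cells were seeded at 3000/well in 384-well plates and dosed after 24 h. Drugs were tested at 10, 1, 0.1, 0.01 and 0.001 μM in duplicate for 72 h, with viability read by CellTiter-Glo luminescence.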

Data set [3] concerns 1405R3. The description is as above. In kind it is cell-based, human. To be noted: 1405R3 DSRT analysis; for AUC: area under the dose-response curve; for MIN: lower asymptote of fitted dose-response curve; for SLOPE: slope of fitted dose-response curve; for EC50: fitted dose-response curve, Min.Conc.tested 1, Max.Conc.tested 10000, CellTiter-Glo, 72 h, read-out: EC50. Also noted: AUC: scale not given here. The method, boiled down: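 Responses are drug sensitivity scores (efficacy cutoff ≥10), fitted from CellTiter-Glo luminescence. Each drug was given at five concentrations (10 to 0.001 μM, tenfold steps) in duplicate for 72 h. Cells were plated at 3000/well 24 h before dosing.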

Data set [4] relates to HuCCT1 cells. The data set is described as follows: Confocal imaging of peptide infiltration into cells. In kind it is in vitro ADME, human. The settings on record: confocal images, Supplementary Fig. 13b. The text has this:
(§1) Supplementary Fig. 13. […] Scale bars, 100 μm. i Body weight of each group of HuCCT1 xenografts at the end of treatment is plotted (n = 6 mice per group, two-way ANOVA). j The tumor weight of each group of HuCCT1 xenografts at the end of treatment is plotted (n = 6 mice per group, Student’s t test).

Data set [5] has as its system HuCCT1 cells. The data set is described as follows: CCK-8 cytotoxicity of the peptides. In kind it is cell-based, human. To be noted: CCK-8 assay, n=3 biological replicates, Supplementary Fig. 13c. The protocol: The cell proliferation rates were determined with a CCK-8 Cell Counting Kit (Vazyme, A311) in strict accordance with the provided protocol. The colony formation capacity was assessed by plating the cells in 6-well plates (5000 cells/well), followed by drug treatment over a 7-day period. Finally, the resulting colonies were subjected to crystal violet staining for subsequent quantification.
as §1

The mark [6] stands for this setting: 783C-6 cells, DSS of DSRT analysis.
[7] abbreviates: 783C-6 cells, minimum of dose-response curve.
Where [8] appears, read: 783C-6 cells, slope of fitted dose-response curve.
The mark [9] stands for this setting: 783C-6 DSRT analysis, DSS calculated from the dose-response curve.
Where [10] appears, read: 783C-6 DSRT analysis, MIN of the fitted dose-response curve.
Setting [11] is: 783C-6 DSRT analysis, CellTiter-Glo viability, fitted dose-response curve, Min.Conc.tested 1, Max.Conc.tested 10000.
The mark [12] stands for this setting: 783C-6 DSRT analysis, slope of the fitted dose-response curve.

On to `C[C@@H]1NC(=O)[C@H]2CCCN2C(=O)[C@H](CCCCCC(=O)[C@@H]2CO2)NC(=O)[C@@H](C)NC1=O` [HC-Toxin], for which the “effect of PFKL knockout on drug efficacy (cell viability)” value (“effect of PFKL knockout” below) in data set [1] is given as “significantly inhibited drug efficacy”.
With `CCCC(CCC)C(=O)O` [Valproic acid sodium salt], the DSS in data set [2] (setting [6]) and in data set [3] (drug sensitivity score) was 0 throughout. Moreover, the AUC in data set [2] (783C-6 cells) was 4.4; in data set [3], 8.4. Also, the MIN in data set [2] (setting [7]) is listed as 85.4; in data set [3] it was 92.2.
`CCCC(CCC)C(=O)O` [Valproic acid]: the DSS in data set [2] (setting [6]) and in data set [3] (drug sensitivity score) was 0 in each case. The results for the AUC in data set [2] (783C-6 cells) and in data set [3] were 4.4 and 18.4, respectively. In addition, the MIN in data set [2] (setting [7]) is 85.5; in data set [3] it was 88.1.
As for `C[C@@H]1COC(Nc2ccc3ncnc(Nc4ccc(OCc5nccs5)c(Cl)c4)c3c2)=N1` [Varlitinib], the DSS in data set [2] (setting [6]) was determined as 1.5; in data set [3] (drug sensitivity score), 0. Moreover, the AUC in data set [2] (783C-6 cells) was found to be 22.8; in data set [3] it was 11.5. For the same compound, the results for the MIN in data set [2] (setting [7]) and in data set [3] were 79.7 and 91.8, respectively.
For `O=C(NNS(=O)(=O)c1ccccc1F)c1cc(F)cc(-c2ccccn2)c1` [WM-1119], the DSS in data set [2] (setting [6]) and in data set [3] (drug sensitivity score) was 0 throughout. Also, the AUC in data set [2] (783C-6 cells) was found to be 7.3; in data set [3] it was 51.4. Besides, the values for the MIN in data set [2] (setting [7]) and in data set [3] were 75.9 and 66.9, respectively.
In the case of `Cc1cc(-c2ccccc2)cc(C(=O)NNS(=O)(=O)c2cccc(O)c2)c1F` [WM-3835], the DSS in data set [2] (setting [6]) and in data set [3] (drug sensitivity score) was 0 in each case. The AUC in data set [2] (783C-6 cells) stood at 15.7; in data set [3], 14.5. The MIN in data set [2] (setting [7]) turned out to be 93.1; in data set [3] it was 90.6.
Consider `Cc1cc(-c2ccccc2)cc(C(=O)NNS(=O)(=O)c2ccccc2)c1F` [WM-8014], for which the DSS in data set [2] (setting [6]) and in data set [3] (drug sensitivity score) was 0 throughout. Further, the AUC was 5.5 in data set [2] (783C-6 cells) and 16.3 in data set [3]. Also, the MIN in data set [2] (setting [7]) is on record as 81.8; in data set [3] it was 89.5. The SLOPE in data set [2] (setting [8]) is recorded as -1; in data set [3] it was -0.1.
With `CCC(=O)CCCCC[C@@H]1NC(=O)[C@H]2CCCCN2C(=O)[C@H]([C@@H](C)CC)NC(=O)[C@H](Cc2cn(OC)c3ccccc23)NC1=O` [apicidin], the “effect of PFKL knockout” value in data set [1] was “significantly inhibited drug efficacy”.
Turning to `O=C(/C=C/c1cccc(S(=O)(=O)Nc2ccccc2)c1)NO` [belinostat, reference compound], the DSS in data set [2] (setting [9]) is on record as 19; in data set [3] (DSS) it was 12.9. The MIN in data set [2] (setting [10]) is listed as 0.2; in data set [3], 0. The AUC is 173.8 in data set [2] (783C-6 DSRT analysis) and 121.5 in data set [3]. The EC50 – broadly, the midpoint of the concentration-response curve – in data set [2] (Homo sapiens) is 195 nM; in data set [3] (Homo sapiens), 684 nM. The “effect of PFKL knockout” value in data set [1] is on record as “significantly inhibited drug efficacy”.
For the compound `O=C(CCCCCCC(=O)Nc1ccccc1)NO` [vorinostat, reference compound], the DSS in data set [2] (setting [6]) worked out at 11.5; in data set [3] (drug sensitivity score) it was 10. In addition, the AUC in data set [2] (783C-6 cells) came to 104.1; in data set [3], 87. In addition, the results for the MIN in data set [2] (setting [7]) and in data set [3] were 3.6 and 6.1, respectively. Besides, the “effect of PFKL knockout” value in data set [1] is “significantly inhibited drug efficacy”.
For the compound (-)-Parthenolide, the figures for the EC50 in data set [2] (setting [11]) and in data set [3] were 1460 nM and 3140 nM, respectively. In addition, the DSS in data set [2] (setting [9]) is recorded as 2.7; in data set [3] (DSS), 3.6. Also, the MIN in data set [2] (setting [10]) is given as 68.4; in data set [3], 34.2. The AUC in data set [2] (783C-6 DSRT analysis) stood at 26.5; in data set [3] it was 33.7. In addition, the SLOPE in data set [2] (setting [12]) and in data set [3] was -2.5 throughout.
In the case of AR-42, the EC50 in data set [2] (setting [11]) worked out at 1080 nM; in data set [3], 1030 nM. Also, the results for the DSS in data set [2] (setting [9]) and in data set [3] (DSS) were 10.5 and 11, respectively. Besides, the MIN is on record as 2.3 in data set [2] (setting [10]) and 1.2 in data set [3]. Also, the AUC in data set [2] (783C-6 DSRT analysis) stood at 96.3; in data set [3], 98.5. In addition, the SLOPE in data set [2] (setting [12]) was -1.3; in data set [3] it was -1.5.
For AZD4547, in data set [2] (setting [11]), the EC50 came to 2230 nM. The DSS in data set [2] (setting [9]) is listed as 3.2; in data set [3] (DSS), 0. Besides, the MIN in data set [2] (setting [10]) was 54.8; in data set [3], 88.1. Moreover, the AUC in data set [2] (783C-6 DSRT analysis) came to 29.6; in data set [3], 4.8.
Regarding CDRIKQSASGKRRVFIVETMRRRRRRRR [∆562-R8], in data set [4], the cellular permeability result is reported as “good cellular permeability”. Further, in data set [5], the cytotoxicity result is on record as “low cytotoxicity”.
Consider “CDRIKQSASGTKRRVFIVETMRRRRRRRR [PFKL-552-572-R8]”, for which the cellular permeability entry in data set [4] is recorded as “good cellular permeability”. In addition, the cytotoxicity result in data set [5] was “low cytotoxicity”.
NKL 22: the results for the DSS in data set [2] (setting [6]) and in data set [3] (drug sensitivity score) were 0 and 0.2, respectively. For the same compound, the AUC in data set [2] (783C-6 cells) turned out to be 3.5; in data set [3], 6.3. The MIN is given as 92.5 in data set [2] (setting [7]) and 83.7 in data set [3]. In addition, the SLOPE in data set [2] (setting [8]) and in data set [3] was -2.5 each time.
In the case of OG-L002, the DSS in data set [2] (setting [6]) and in data set [3] (drug sensitivity score) was 0 in each case. Also, the figures for the AUC in data set [2] (783C-6 cells) and in data set [3] were 3 and 0.1, respectively. The MIN in data set [2] (setting [7]) is 94.7; in data set [3] it was 100. Besides, the SLOPE was -0.5 in data set [2] (setting [8]) and -0.1 in data set [3].
For TC-H 106, in data set [2] (783C-6 cells, DSRT analysis, CellTiter-Glo viability, concentrations tested 1 to 10000 (unit inferred), GI50), the half-maximal effective concentration (EC50) is 923 nM. Also, the DSS in data set [2] (setting [6]) came to 5.3; in data set [3] (drug sensitivity score) it was 2.6. In addition, the AUC in data set [2] (783C-6 cells) amounted to 61.5; in data set [3] it was 47. Also, the MIN in data set [2] (setting [7]) was found to be 48.5; in data set [3], 75.6. For the same compound, the SLOPE in data set [2] (setting [8]) is on record as -0.6; in data set [3], -0.4.
